According to patent US12303497B2, “Anti-androgens for the treatment of metastatic castration-sensitive prostate cancer” (priority 2019, dated 2025):

Columns and labels:
AR = AR (Homo sapiens, UniProt P10275); conditions: cited from earlier work
T877A AR mutant = T877A AR mutant (Homo sapiens, UniProt P10275, T878A); conditions: literature; cited from earlier work
Plasma protein binding = type: in vitro ADME
[1] = Single oral administration of radiolabeled apalutamide (AUC share, excretion); type: in vivo
[2] = system: multidrug and toxin extrusions (MATEs); assay: In vitro transporter inhibition; type: in vitro ADME
[3] = human, in vivo
P-gp = P-gp (Homo sapiens, UniProt P08183); conditions: not told
P-gp, sequence (P08183 whole entry): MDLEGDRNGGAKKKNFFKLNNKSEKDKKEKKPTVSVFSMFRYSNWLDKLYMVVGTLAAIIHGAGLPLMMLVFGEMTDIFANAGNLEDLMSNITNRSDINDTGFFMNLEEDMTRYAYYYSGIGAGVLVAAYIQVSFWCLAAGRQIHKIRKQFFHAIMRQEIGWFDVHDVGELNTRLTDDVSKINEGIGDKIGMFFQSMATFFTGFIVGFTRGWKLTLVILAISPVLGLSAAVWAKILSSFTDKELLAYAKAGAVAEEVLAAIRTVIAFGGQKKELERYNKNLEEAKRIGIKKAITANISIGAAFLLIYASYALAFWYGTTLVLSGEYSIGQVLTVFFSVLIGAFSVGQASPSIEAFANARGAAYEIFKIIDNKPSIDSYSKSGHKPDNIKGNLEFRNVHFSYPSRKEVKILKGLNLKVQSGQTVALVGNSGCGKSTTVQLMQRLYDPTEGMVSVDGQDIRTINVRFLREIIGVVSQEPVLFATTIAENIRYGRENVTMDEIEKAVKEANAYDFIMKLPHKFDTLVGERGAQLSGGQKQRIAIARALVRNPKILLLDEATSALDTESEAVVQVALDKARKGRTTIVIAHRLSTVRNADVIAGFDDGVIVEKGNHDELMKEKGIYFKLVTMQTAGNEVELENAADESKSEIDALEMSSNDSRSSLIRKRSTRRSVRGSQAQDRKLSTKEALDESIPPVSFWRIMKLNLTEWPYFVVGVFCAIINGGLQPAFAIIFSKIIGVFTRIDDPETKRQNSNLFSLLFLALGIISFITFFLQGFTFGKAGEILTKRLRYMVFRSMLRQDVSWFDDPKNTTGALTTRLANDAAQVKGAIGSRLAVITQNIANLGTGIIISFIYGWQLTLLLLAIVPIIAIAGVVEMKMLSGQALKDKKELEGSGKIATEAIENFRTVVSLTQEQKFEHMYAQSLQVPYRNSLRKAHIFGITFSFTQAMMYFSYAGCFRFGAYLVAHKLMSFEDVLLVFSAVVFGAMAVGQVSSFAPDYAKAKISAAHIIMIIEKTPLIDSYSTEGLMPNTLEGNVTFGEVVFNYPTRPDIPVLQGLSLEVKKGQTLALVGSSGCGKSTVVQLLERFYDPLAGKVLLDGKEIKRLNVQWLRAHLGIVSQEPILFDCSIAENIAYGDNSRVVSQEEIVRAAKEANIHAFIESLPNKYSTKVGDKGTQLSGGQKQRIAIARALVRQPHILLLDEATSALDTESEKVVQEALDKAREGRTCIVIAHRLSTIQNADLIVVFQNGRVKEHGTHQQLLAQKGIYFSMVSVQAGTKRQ

BCRP = BCRP (Homo sapiens, UniProt Q9UNQ0); conditions: not told
OATP1B1 = OATP1B1 (Homo sapiens, UniProt Q9Y6L6)
OATP1B1, sequence (Q9Y6L6 whole entry): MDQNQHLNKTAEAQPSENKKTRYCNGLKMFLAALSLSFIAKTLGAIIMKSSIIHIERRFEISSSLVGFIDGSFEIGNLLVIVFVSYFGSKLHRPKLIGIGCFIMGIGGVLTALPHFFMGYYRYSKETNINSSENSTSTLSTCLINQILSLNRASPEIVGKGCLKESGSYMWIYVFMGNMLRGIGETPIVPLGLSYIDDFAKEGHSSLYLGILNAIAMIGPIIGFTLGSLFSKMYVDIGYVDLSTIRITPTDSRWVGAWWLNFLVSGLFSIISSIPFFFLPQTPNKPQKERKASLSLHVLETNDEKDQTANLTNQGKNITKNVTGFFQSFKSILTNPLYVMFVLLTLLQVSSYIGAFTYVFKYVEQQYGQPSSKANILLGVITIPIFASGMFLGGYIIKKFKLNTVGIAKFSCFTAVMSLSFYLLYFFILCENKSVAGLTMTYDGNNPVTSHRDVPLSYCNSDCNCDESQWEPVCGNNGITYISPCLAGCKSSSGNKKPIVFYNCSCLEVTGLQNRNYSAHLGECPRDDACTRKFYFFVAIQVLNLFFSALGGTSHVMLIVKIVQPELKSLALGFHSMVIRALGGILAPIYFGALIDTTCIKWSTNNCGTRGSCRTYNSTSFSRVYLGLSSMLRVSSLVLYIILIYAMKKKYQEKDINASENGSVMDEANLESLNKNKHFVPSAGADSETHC

OATP1B3 = OATP1B3 (Homo sapiens, UniProt Q9NPD5)
CYP2B6 = CYP2B6 (Homo sapiens, UniProt P20813)
CYP2B6, sequence (P20813 whole entry): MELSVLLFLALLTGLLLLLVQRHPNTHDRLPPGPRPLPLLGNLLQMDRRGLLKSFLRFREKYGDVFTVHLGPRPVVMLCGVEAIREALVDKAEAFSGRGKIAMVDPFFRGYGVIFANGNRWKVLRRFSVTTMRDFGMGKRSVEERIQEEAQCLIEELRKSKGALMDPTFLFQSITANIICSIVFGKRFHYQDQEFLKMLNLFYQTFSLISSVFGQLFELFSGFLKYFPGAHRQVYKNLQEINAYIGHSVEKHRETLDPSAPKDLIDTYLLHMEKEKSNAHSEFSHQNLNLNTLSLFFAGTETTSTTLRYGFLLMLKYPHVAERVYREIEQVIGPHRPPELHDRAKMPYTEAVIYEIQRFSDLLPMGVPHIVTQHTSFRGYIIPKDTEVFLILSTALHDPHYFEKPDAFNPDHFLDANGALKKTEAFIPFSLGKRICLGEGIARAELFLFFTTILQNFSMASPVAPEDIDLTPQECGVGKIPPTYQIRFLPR

CYP2C8 = biological target: T1, CYP2C8 (Homo sapiens, UniProt P10632)
T1 sequence (P10632 1-490): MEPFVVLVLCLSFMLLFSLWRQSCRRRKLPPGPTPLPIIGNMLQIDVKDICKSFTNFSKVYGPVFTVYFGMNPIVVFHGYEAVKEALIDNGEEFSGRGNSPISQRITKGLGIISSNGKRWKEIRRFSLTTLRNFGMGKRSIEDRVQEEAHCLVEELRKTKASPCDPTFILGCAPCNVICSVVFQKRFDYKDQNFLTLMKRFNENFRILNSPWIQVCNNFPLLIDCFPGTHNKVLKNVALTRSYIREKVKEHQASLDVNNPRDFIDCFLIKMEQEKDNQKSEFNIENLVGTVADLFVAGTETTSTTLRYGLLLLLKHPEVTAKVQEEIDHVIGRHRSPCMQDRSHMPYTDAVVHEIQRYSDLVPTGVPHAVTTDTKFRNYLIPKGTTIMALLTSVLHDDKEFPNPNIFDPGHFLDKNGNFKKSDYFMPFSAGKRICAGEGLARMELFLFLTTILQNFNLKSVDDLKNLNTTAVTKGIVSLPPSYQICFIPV

CYP2C9 = CYP2C9 (Homo sapiens, UniProt P11712)
CYP2C19 = CYP2C19 (Homo sapiens, UniProt P33261)
CYP3A4 = CYP3A4 (Homo sapiens, UniProt P08684)
CYP3A4, sequence (P08684 whole entry): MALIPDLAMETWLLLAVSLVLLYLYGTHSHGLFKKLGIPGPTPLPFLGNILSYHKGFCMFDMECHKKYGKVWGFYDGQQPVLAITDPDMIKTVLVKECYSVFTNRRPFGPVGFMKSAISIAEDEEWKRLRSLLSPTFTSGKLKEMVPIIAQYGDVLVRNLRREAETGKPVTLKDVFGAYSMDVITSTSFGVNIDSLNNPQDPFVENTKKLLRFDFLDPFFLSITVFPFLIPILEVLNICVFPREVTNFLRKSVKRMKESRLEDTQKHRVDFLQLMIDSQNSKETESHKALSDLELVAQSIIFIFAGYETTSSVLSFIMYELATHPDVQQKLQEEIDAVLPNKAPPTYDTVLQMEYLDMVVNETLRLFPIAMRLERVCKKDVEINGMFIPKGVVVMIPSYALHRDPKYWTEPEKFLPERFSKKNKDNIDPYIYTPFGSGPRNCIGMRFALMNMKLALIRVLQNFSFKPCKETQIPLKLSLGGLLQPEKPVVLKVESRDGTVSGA

CYP2D6 = CYP2D6 (Homo sapiens, UniProt P10635)
[4] = biological target: organic cation transporter 2 (OCT2) (Homo sapiens, UniProt O15244)
[5] = biological target: organic anion transporter 3 (OAT3) (Homo sapiens, UniProt Q8TCC7)
organic anion transporter 3 (OAT3), sequence (Q8TCC7 whole entry): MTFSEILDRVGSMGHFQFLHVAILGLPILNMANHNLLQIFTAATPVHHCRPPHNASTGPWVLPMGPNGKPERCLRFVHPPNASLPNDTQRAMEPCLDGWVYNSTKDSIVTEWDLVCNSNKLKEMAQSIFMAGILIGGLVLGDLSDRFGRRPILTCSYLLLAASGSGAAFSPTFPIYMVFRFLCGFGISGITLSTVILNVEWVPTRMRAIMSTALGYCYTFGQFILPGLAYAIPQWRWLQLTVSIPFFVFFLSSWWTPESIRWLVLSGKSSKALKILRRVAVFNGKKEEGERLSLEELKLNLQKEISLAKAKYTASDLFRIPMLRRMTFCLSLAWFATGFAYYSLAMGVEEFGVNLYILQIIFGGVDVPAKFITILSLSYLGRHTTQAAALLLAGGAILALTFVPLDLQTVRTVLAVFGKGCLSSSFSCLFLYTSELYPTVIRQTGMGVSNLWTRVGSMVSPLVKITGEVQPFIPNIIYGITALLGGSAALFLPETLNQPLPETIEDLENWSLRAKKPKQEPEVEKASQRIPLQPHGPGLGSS

[6] = biological target: organic anion transporter 1 (Homo sapiens, UniProt Q4U2R8)
organic anion transporter 1, sequence (Q4U2R8 whole entry): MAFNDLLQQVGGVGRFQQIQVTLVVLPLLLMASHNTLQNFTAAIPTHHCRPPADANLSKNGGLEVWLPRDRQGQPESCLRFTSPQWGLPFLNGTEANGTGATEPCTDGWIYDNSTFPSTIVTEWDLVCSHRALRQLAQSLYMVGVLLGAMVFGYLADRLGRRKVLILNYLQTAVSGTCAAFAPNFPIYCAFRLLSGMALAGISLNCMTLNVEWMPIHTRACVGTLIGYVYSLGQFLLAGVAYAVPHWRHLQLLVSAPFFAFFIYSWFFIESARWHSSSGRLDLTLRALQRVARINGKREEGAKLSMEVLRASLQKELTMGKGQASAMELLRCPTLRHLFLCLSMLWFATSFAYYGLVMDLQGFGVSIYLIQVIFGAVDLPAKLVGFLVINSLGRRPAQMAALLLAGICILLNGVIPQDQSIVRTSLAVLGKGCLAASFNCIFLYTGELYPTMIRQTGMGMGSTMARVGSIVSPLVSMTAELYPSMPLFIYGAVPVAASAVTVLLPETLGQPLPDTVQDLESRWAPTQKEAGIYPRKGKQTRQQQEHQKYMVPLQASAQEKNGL

CYP1A2 = CYP1A2 (Homo sapiens, UniProt P05177); assay: In vitro effect on CYP; conditions: therapeutically relevant concentrations
CYP1A2, sequence (P05177 whole entry): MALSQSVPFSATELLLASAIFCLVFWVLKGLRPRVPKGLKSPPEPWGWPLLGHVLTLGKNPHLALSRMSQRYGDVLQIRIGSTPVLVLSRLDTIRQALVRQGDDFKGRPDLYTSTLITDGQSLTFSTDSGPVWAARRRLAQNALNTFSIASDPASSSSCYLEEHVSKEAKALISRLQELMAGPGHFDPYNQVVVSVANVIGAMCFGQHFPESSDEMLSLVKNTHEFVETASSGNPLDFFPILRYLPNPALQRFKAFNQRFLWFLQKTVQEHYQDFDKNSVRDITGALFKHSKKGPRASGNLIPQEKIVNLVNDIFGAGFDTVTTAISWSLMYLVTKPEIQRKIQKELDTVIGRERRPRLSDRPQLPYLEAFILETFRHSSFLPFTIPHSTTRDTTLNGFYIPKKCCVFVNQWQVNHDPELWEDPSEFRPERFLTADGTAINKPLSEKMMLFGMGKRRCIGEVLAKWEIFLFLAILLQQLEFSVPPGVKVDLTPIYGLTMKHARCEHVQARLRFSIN

[7] = up to 70 days after single oral radiolabeled dose

Molecule: CC(O)c1cc(C(=O)N[C@@H](C)Cn2ccc(-c3ccc(C#N)c(Cl)c3)n2)n[nH]1 (mixture of isomers) [Darolutamide, N-{(2S)-1-[3-(3-chloro-4-cyanophenyl)-1H-pyrazol-1-yl]propan-2-yl}-5-(1-hydroxyethyl)-1H-pyrazole-3-carboxamide]
- Affinity of binding to AR (AR): high affinity

Molecule: CC(C)(O)C(=O)Nc1ccc([N+](=O)[O-])c(C(F)(F)F)c1 [hydroxyflutamide]
- Activity in T877A AR mutant (T877A AR mutant): AR agonists

Molecule: N-desmethyl apalutamide
- Bound to plasma proteins (Plasma protein binding): 95%
- Share of the total AUC ([1]; single oral radiolabeled apalutamide 240 mg): 44%
- Dose recovered in feces as this compound [1, 7]: 2%
- Dose recovered in urine as this compound [1, 7]: 2.7%
- Inhibition of MATEs [2]: inhibit
- AUC at steady-state, mean [3]: 124 µg·h/mL
- Cmax at steady-state, mean [3]: 5900 ng/mL
- Pharmacokinetics in specific populations [3]: No clinically significant differences
- Substrate for P-gp (P-gp): substrates
- Substrate for BCRP (BCRP): not
- Substrate for OATP1B1 (OATP1B1): not
- Substrate for OATP1B3 (OATP1B3): not
- CYP2B6 inhibition (CYP2B6): moderate inhibitors
- CYP2C8 inhibition (CYP2C8): moderate inhibitors
- CYP2C9 inhibition (CYP2C9): weak inhibitors
- CYP2C19 inhibition (CYP2C19): weak inhibitors
- CYP3A4 inhibition (CYP3A4): weak inhibitors
- Effect on CYP2D6 (CYP2D6): do not affect
- Inhibition of OCT2 [4]: inhibit
- Inhibition of OAT3 [5]: inhibit
- Inhibition of organic anion transporter 1 [6]: do not inhibit
- Effect on CYP1A2 (CYP1A2): do not affect
